These results are taken from ChEMBL document CHEMBL4052645, “Discovery of potent and efficacious pyrrolopyridazines as dual JAK1/3 inhibitors” (Bioorg Med Chem Lett, 2017).

Activity calls are given as the source filed them. The calls are words filed in the database; no cut-off is given here.

In series [1] the target is Non-receptor tyrosine-protein kinase TYK2 (Homo sapiens, UniProt P29597). The experiment in a line: Inhibition of His-tagged TYK2 (unknown origin) after 3 hrs by Caliper assay.
The target of series [2] is Tyrosine-protein kinase JAK2 (Homo sapiens, UniProt O60674). The series is described as follows: Inhibition of GST-tagged JAK2 (unknown origin) after 3 hrs by Caliper assay.
Sequence of Tyrosine-protein kinase JAK2 (O60674 whole entry): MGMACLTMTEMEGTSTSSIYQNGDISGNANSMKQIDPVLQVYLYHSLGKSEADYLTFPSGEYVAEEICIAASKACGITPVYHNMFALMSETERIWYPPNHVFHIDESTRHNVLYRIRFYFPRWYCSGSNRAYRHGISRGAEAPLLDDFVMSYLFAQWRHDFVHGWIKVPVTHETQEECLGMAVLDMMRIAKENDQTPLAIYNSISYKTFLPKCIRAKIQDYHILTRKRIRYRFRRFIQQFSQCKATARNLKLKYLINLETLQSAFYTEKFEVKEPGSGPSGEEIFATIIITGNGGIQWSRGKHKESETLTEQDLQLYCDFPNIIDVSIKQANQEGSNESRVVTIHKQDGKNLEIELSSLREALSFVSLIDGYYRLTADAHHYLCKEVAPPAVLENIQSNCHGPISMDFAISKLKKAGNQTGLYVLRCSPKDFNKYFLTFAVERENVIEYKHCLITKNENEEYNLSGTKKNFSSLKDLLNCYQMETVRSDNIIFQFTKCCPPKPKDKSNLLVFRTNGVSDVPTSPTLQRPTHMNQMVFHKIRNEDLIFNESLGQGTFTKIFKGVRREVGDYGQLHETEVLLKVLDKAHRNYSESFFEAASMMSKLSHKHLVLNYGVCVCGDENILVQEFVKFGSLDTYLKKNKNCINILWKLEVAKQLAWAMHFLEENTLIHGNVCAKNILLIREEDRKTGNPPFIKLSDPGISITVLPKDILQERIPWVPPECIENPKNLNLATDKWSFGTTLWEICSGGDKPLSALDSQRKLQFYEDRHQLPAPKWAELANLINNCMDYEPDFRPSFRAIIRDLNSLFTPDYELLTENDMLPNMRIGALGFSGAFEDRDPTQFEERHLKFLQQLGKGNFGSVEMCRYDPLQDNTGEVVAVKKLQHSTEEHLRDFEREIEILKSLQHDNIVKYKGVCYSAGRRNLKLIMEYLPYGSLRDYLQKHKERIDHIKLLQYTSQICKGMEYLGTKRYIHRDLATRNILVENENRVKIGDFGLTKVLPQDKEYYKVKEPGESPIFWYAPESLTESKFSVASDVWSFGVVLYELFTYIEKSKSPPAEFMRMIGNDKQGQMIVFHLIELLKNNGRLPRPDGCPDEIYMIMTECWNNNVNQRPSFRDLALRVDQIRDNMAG
The nature of series [3]: Protein binding in mouse plasma at 10 mg/kg, po. The class given is ADME, organism-based. To be noted: read-out: PPB (converted).
Series [4] is described as follows: Cmax in mouse at 10 mg/kg, po. In kind it is ADME, organism-based. More on the design: dose 10 mg/kg, route oral. As to conditions: in vivo.
A further series concerns the target JAK3/JAK1 (Homo sapiens, UniProt P23458+P52333). The experiment in a line: Inhibition of JAK1/JAK3 in human whole blood assessed as reduction in IL-2 induced IFN-gamma production after 18 hrs by ELISA. In kind it is protein-complex assay. (In an ELISA, binding on a coated surface is turned into a signal by an enzyme label.)
The target in series [5] is Tyrosine-protein kinase JAK1 (Homo sapiens, UniProt P23458). The experiment in a line: Inhibition of GST-tagged JAK1 (unknown origin) after 3 hrs by Caliper assay.
Sequence of Tyrosine-protein kinase JAK1 (P23458 whole entry): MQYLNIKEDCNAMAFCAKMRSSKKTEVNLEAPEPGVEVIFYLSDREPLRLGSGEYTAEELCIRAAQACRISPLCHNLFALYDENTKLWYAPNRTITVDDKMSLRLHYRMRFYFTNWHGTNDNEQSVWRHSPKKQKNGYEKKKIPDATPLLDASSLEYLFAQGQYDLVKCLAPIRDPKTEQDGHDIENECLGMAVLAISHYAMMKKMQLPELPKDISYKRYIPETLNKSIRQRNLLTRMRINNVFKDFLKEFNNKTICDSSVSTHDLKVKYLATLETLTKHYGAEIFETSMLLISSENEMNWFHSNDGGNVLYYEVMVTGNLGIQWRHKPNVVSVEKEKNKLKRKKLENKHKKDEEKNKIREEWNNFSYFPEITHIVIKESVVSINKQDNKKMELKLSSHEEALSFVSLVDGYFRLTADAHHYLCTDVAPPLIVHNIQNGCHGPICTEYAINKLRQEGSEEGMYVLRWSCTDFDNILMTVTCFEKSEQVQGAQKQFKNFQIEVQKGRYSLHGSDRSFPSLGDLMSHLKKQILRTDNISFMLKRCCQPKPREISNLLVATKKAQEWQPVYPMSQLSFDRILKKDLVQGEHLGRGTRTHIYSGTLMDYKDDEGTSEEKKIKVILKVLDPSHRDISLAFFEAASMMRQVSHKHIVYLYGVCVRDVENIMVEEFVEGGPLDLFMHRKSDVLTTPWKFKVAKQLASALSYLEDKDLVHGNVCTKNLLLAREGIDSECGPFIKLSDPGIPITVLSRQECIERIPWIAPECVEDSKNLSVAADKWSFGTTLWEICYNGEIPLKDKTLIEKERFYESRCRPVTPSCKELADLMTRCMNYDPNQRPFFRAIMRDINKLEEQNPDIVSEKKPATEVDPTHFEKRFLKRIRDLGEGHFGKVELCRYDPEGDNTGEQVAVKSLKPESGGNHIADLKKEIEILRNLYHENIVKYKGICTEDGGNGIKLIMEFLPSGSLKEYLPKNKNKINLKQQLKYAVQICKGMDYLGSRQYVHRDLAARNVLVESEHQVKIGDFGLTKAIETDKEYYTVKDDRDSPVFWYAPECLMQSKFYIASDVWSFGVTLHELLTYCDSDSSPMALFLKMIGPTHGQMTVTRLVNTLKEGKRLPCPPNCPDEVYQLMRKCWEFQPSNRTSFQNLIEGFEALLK
Series [6] is described as follows: Permeability from apical side to basolateral side in human Caco2 cells. In kind it is ADME, cell-based. To be noted: Caco-2, read-out: permeability.
For series [7], the target named is T1, Tyrosine-protein kinase JAK3 (Homo sapiens, UniProt P52333).
T1 sequence (P52333 whole entry): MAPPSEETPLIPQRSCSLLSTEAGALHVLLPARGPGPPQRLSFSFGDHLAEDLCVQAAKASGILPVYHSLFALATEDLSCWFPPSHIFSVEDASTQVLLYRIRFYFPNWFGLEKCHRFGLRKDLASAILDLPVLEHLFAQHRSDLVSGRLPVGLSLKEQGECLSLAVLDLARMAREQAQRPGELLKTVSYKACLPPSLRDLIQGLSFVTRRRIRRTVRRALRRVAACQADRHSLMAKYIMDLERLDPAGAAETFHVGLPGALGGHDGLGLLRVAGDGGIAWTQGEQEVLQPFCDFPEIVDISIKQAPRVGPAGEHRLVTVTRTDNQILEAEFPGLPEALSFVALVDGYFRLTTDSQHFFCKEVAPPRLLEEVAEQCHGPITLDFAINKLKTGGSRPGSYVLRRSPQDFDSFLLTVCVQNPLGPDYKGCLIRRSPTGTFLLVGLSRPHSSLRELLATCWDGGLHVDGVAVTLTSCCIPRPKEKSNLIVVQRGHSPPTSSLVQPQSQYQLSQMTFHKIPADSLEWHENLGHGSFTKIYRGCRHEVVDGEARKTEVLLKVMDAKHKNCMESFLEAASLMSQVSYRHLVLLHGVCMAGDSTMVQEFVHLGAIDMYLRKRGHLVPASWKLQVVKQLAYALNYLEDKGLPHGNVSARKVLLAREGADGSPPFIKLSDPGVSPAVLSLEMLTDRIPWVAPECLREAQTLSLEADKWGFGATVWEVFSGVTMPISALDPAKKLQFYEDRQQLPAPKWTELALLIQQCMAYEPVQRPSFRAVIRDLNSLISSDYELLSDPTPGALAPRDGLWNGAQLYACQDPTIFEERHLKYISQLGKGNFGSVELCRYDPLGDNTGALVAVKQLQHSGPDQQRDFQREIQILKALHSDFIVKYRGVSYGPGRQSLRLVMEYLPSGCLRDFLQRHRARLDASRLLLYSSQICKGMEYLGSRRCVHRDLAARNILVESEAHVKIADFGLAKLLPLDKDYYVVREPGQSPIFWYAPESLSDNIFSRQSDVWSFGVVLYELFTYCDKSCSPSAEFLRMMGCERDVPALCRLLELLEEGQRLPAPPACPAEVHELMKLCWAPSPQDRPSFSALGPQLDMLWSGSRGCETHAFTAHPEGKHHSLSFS
The series is described as follows: Inhibition of JAK3 (unknown origin) using CSKtide as substrate after 30 mins in presence of [gamma33P]ATP by liquid scintillation counting method.

Series [8] is described as follows: Metabolic stability in mouse liver microsomes assessed as compound remaining after 10 mins. In kind it is ADME, microsome. As to conditions: read-out: Stability. For orientation: Liver microsomes are vesicles of endoplasmic reticulum, rich in cytochrome P450 enzymes.
Series [9] is described as follows: Clearance of compound in rat. To be noted: in vivo. The class given is ADME.
In another series the test system is Serum. The series is described as follows: Protein binding in human serum. In kind it is ADME, cell-free.
Series [10] in a line: Oral bioavailability in rat. As to conditions: in vivo. The class given is ADME, organism-based.
The species entered for the next series is Rattus norvegicus. The experiment in a line: Clearance of compound in rat relative to hepatic blood flow. The class given is ADME. As to conditions: in vivo.
Series [11] is described as follows: Selectivity ratio of IC50 for JAK2 dependent EPO-induced STAT5A phosphorylation in human TF1 cells to IC50 for JAK1/JAK3 dependent IL2-induced STAT3 phosphorylation in human PBMC derived T-cells.
Series [12] addresses Voltage-gated inwardly rectifying potassium channel KCNH2 (Homo sapiens, UniProt Q12809). The experiment in a line: Inhibition of human ERG by flux-based assay.
Series [13] has as its system Mus musculus. The experiment in a line: Antiarthritic activity in collagen-induced arthritis mouse model assessed as reduction in inflammation at 20 mg/kg bid measure up to 41 days. In kind it is functional, organism-based.
Series [14] deals with Mus musculus. The experiment in a line: Antiarthritic activity in collagen-induced mouse model assessed as […] at 20 mg/kg bid up to 41 days. The class given is functional, organism-based.
Series [15] is described as follows: Cmin in mouse at 10 mg/kg, po after 8 hrs. To be noted: in vivo, read-out: Cmin. The class given is ADME, organism-based.
The nature of series [16]: Cmax in mouse at 10 mg/kg, po after 8 hrs. To be noted: in vivo. Also on record: dose 10 mg/kg, route oral. In kind it is ADME, organism-based.

Sequence of Voltage-gated inwardly rectifying potassium channel KCNH2 (Q12809 whole entry): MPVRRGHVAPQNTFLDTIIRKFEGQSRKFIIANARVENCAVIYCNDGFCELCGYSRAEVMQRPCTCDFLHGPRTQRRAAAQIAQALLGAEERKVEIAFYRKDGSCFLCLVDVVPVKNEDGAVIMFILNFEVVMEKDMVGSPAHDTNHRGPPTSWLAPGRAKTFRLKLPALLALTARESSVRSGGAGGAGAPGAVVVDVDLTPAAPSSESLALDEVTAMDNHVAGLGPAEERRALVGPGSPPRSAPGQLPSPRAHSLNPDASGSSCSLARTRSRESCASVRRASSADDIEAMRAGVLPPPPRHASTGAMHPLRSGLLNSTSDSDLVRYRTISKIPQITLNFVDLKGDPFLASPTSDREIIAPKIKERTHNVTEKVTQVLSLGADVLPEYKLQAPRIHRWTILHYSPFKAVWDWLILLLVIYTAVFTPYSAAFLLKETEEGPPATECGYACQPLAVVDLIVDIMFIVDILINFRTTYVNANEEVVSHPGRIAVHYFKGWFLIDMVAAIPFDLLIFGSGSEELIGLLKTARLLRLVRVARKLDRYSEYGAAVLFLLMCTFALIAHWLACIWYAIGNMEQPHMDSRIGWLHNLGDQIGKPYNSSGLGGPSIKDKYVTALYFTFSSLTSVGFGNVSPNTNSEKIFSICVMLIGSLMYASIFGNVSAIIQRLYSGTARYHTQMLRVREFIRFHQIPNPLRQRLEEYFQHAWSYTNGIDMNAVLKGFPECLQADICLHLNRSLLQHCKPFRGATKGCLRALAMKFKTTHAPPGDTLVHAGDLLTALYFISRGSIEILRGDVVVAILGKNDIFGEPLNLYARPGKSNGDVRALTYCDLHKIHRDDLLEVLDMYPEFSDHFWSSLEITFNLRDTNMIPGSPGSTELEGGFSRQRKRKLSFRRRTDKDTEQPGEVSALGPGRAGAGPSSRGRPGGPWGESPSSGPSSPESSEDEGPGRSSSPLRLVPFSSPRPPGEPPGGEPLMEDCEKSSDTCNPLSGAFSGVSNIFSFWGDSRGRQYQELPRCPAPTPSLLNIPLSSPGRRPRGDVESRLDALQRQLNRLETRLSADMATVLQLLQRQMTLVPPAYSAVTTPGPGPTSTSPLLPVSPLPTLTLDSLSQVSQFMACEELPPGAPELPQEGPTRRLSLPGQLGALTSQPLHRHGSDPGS
Sequence of JAK3/JAK1 (P23458 whole entry, one chain of several): as the sequence (P23458 whole entry) above
Sequence of Non-receptor tyrosine-protein kinase TYK2 (P29597 whole entry): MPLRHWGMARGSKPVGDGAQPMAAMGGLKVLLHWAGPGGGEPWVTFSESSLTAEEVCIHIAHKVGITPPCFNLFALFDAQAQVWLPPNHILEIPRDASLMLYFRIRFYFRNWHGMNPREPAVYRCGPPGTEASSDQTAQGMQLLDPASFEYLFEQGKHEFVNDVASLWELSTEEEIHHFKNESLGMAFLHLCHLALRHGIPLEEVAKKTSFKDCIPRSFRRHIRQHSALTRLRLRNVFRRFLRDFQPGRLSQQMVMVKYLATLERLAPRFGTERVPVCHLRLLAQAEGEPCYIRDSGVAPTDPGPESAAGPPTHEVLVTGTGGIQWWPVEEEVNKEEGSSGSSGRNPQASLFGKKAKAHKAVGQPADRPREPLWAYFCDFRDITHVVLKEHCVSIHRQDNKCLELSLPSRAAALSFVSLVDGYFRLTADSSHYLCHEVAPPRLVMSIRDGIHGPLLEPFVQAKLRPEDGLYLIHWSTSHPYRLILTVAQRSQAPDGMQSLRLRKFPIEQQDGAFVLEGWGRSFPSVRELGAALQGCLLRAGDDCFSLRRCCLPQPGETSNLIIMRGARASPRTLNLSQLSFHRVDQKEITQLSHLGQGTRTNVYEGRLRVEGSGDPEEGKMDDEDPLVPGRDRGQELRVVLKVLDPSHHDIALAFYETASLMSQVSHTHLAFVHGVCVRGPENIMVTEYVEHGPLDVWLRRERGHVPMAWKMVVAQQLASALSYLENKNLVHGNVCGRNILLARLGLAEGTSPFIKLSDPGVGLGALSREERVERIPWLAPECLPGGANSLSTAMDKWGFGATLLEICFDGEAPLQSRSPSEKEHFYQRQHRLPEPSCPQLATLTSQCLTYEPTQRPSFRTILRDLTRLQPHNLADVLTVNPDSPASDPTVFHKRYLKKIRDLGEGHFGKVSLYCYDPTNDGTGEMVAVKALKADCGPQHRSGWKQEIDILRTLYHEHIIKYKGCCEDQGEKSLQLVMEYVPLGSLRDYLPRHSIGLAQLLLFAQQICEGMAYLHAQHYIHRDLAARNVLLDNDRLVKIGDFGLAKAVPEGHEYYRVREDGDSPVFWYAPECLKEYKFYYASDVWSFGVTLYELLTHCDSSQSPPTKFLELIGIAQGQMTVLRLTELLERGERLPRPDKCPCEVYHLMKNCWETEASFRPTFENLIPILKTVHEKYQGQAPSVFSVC

Turning to `CC1(C)[C@H](Nc2c(C(N)=O)cnn3cc(-c4cc[nH]n4)cc23)CC[C@]1(C)N`, the IC50 – broadly, the concentration at which inhibition is half-maximal – in series [1] stood at 14 nM; in series [2], 21 nM; at JAK3/JAK1, 81 nM; in series [5], 1.7 nM; in series [7], 1.6 nM. Also, in series [3], the fraction unbound was 0.51. In [4], the Cmax – broadly, the peak of the concentration-time curve – is under 250 nM. Moreover, in [6], the Papp A→B was 6.5 ×10⁻⁶ cm/s. Further, in series [8], the remaining at 10 min is 83%.
On to `CC1(C)[C@H](Nc2c(C(N)=O)cnn3cccc23)CC[C@]1(C)N`, for which, in series [9], the clearance (as a rule, a measure of how efficiently the substance is removed, as volume per time) is 145 mL/min/kg. The PB in the series on Serum was determined as 97%. The bioavailability (commonly dose-corrected exposure relative to a reference, in per cent) in series [10] was determined as 24%. For the same compound, the CL in the series filed under Rattus norvegicus is given as over 100%.
As for `CC1(C)[C@H](Nc2c(C(N)=O)cnn3cc(-c4ccncc4F)cc23)CC[C@]1(C)N`, the IC50 in series [1] was 46 nM; in [2], 70 nM; in series [12] it was over 80000 nM; on JAK3/JAK1, 120 nM; in series [5] it was 3.6 nM; in series [7] it was 4.6 nM. Further, the fraction unbound in series [3] was 0.22. Further, the “Ratio IC50” value in [11] was 150. For the same compound, the Cmax in series [4] was under 250 nM. Moreover, the Papp A→B in series [6] was determined as 2.3 ×10⁻⁶ cm/s. Moreover, the remaining at 10 min in [8] is 68%.
With `C[C@@H]1CCN(C(=O)CC#N)C[C@@H]1N(C)c1ncnc2[nH]ccc12`, the result in the series with Mus musculus [13] and with Mus musculus [14] was Active.
Regarding `CC1(C)[C@H](Nc2c(C(N)=O)cnn3cc(-c4ccncc4)cc23)CC[C@]1(C)N`, the IC50 was determined as 44 nM in [1]; 80 nM in [2]; 56 nM on JAK3/JAK1; 4.9 nM in series [5]; 6.7 nM in [7]. In series [3], the fraction unbound was 0.31. This compound had a Cmax in series [4] of under 250 nM. Moreover, the Papp A→B in [6] is under 1.5 ×10⁻⁶ cm/s. Besides, the remaining at 10 min in [8] is 75%.
With `Cc1cccc(-c2cc3c(N[C@@H]4CC[C@](C)(N)C4(C)C)c(C(N)=O)cnn3c2)c1`, the IC50 turned out to be 7.9 nM in series [1]; 11 nM in series [2]; 7700 nM in [12]; 700 nM on JAK3/JAK1; 0.9 nM in [5]; 0.9 nM in [7]. The “Ratio IC50” value in [11] was determined as 50.
`CC1(C)[C@H](Nc2c(C(N)=O)cnn3cc(-c4ccc(F)nc4)cc23)CC[C@]1(C)N`: the IC50 worked out at 27 nM in series [1]; 19 nM in [2]; 35000 nM in series [12]; 100 nM at JAK3/JAK1; 2.2 nM in [5]; 0.4 nM in series [7]. Moreover, in series [15], the concentration at 8 h was 100 nM. Moreover, the “Ratio IC50” value in series [11] is on record as 13. This compound also yielded a Cmax in [16] of 300 nM. Further, the Papp A→B in [6] was under 1.5 ×10⁻⁶ cm/s. In addition, the remaining at 10 min in series [8] was found to be 88%.
For the compound `Cc1ccc(-c2cc3c(N[C@@H]4CC[C@](C)(N)C4(C)C)c(C(N)=O)cnn3c2)cn1`, the IC50 in [1] amounted to 29 nM; in [2], 22 nM; in series [12] it was 8000 nM; at JAK3/JAK1, 84 nM; in [5], 2 nM; in series [7] it was 0.9 nM. Also, the “Ratio IC50” value in series [11] is 80.
